This note sets out measurements from patent US20070014692A1, “Method and apparatus for measurement of binding between a protein and a nucleotide” (priority 1998, published 2007).

This test addresses T1, human estrogen receptor binding to the ERE (estrogen response element from Xenopus Vitellogenen A2 Gene) (Homo sapiens, UniProt P03372).
T1 construct: ubiquitin (gene fusion); host or cells: Saccharomyces cerevisiae strain AF103, YEpE10 plasmid, CUP1 promoter
The experiment in a line: Evanescent fiber optic sensor with ERE fiber: binding of Cy5-tagged hER to estrogen response element in the presence of compound (S/C).

T1 sequence (P03372 whole entry, the tested form may be a part): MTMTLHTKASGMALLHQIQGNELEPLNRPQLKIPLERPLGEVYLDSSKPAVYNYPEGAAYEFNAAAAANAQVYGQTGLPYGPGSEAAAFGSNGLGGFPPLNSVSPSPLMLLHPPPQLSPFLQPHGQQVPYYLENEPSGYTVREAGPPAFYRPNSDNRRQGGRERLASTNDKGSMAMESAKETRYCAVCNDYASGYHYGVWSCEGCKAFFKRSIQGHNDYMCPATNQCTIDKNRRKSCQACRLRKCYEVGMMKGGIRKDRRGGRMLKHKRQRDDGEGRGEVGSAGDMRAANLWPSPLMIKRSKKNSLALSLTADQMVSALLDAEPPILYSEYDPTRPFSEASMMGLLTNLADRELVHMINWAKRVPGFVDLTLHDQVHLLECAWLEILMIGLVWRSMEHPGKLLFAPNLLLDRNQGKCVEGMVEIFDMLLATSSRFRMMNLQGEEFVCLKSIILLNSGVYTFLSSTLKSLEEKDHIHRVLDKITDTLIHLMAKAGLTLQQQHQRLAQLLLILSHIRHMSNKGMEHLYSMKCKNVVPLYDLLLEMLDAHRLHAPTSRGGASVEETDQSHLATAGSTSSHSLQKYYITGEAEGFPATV

Take `C[C@H]1CCCC(=O)CCC/C=C/c2cc(O)cc(O)c2C(=O)O1` [zearalenone]: the “effect on binding of receptor to the ERE fiber, in words” value (10^−6M compound) was “increase binding to the ERE more than do the weak biological estrogens”. The “Response of ERE fiber to hER and 10^−6M compound (control = 3.51)” value (S/C value, control = 3.51) was 5.01.
